# From patent US20100174075A1, “USE OF NITRIC OXIDE-RELEASING STATINS IN THE TREATMENT OF PULMONARY ARTERIAL HYPERTENSION” (NICOX S.A., priority 2007, published 2010)
# Tests used:
# [1] = test system: Endothelin-1 (ET-1) release from PASMCs; assay: TGF-β1-stimulated ET-1 release from PASMCs (chemiluminescent immunoassay); assay type: cell-based, human; settings: 1 μM; TGF-β1 10 ng/ml; PASMCs conditioned medium
# Method: Endothelin-1 (ET-1) release from PASMCs was measured in conditioned media using a chemiluminescent immunoassay system (QuantiGlo®, R&D Systems, UK). Cells were grown to confluence in 24-well plates (5×10^4 cells per well) in DMEM containing 10% FBS and serum-deprived for 24-hours prior to stimulation with transforming growth factor-[…] (TGF-β1) (10 ng/ml) and treatment with pravastatin and NO-releasing pravastatin (Example 1 of WO 2004/105754). Release experiments were also conducted in the presence of mevalonic acid (MVA), farnesylpyrophosphate (FPP), geranylgeranylpyrophosphate (GGPP) and inhibitors of geranylgeranyl transferase (GGTI-2133), farnesyl transferase (FTI-277) and Rho Kinase (Y27632). Production of MMP-9 was induced by dual stimulation with tumour necrosis factor-α (TNF-α) (10 ng/ml) and phorbol 12-[…] 13-acetate (PMA) (0.1 μM) and measured in conditioned medium using a Biotrack® ELISA-based immunoassay (GE Healthcare, UK). In the presence of TGF-β1 (10 ng/ml), ET-1 production by PASMCs increased markedly, compared with control serum-deprived cells.
# [2] = test system: Human pulmonary artery smooth muscle cells (PASMCs); assay: DNA synthesis by [3H-methyl]-thymidine incorporation in PDGF-stimulated PASMCs; assay type: cell-based; settings: PDGF-BB 5 ng/ml, 24 hours
# Method: DNA synthesis was measured by [^3H-methyl]-thymidine incorporation over 24 hours as previously described.
# Human pulmonary artery smooth muscle cells (PASMCs) were seeded in 48-well plates at a density of 5×10^4 cells/well in Dulbecc's modified Eagle medium (DMEM) containing 10% fetal bovine […] (FBS). Cells were allowed to adhere overnight, providing a monolayer of approximately 80-90% confluence, and then quiesced for 48 hours with daily changes in serum-free DMEM. Cells were subsequently incubated in fresh medium containing 0.25 μCi/well [^3H-methyl]-thymidine (GE Healthcare, Little Chalfont, Buck's, UK) and treated with pravastatin and NO-releasing pravastatin (Example 1 of WO 2004/105754) at stated concentrations in the presence and absence of recombinant human platelet-derived growth factor-BB (PDGF) (5 ng/ml). Four to six replicates were analysed per treatment and [^3H-methyl]-thymidine uptake determined by liquid scintillation analysis (2200CA TRI-CARB, United Technologies Packcard, Pangbourne, UK).
structure (smiles),measurement,setting,value
CC[C@H](C)C(=O)O[C@H]1C[C@H](O)C=C2C=C[C@H](C)[C@H](CC[C@@H](O)C[C@@H](O)CC(=O)O)[C@H]21 [Pravastatin],ET-1 (% of TGF-β1),[1],89.9 ± 12.8 % of TGF-β1
same,[3H-Methyl]-thymidine incorporation (% of PDGF),[2]; 1 μM,95.0 ± 3.6 % of PDGF
same,[3H-Methyl]-thymidine incorporation (% of PDGF),[2]; 5 μM,92.5 ± 4.2 % of PDGF
same,[3H-Methyl]-thymidine incorporation (% of PDGF),[2]; 10 μM,89.5 ± 2.4 % of PDGF
